Reference: patent US20190022016A1, “COMPOSITIONS FOR SUSTAINED RELEASE OF ANTI-GLAUCOMA AGENTS TO CONTROL INTRAOCULAR PRESSURE” (The Johns Hopkins University, priority 2016, published 2019)

Experiments:
[1] = systemic; cited from earlier work
[2] = In vitro drug release from microparticles in PBS; format: physicochemical; conditions: for duration of in vitro drug release: PBS pH 7.4, 37° C., infinite sink, PEG3-PSA microparticles, 2% PEG; for drug released during the first 6 days / release over the initial 24 hours: from PEG3-PSA, infinite sink conditions
Protocol: PEG3-PSA is a polyanhydride polymer that undergoes surface erosion to deliver continuous drug release and has been previously used for ocular delivery. Particle disappearance parallels drug release due to surface erosion. Particles were suspended in phosphate buffered saline (PBS, pH 7.4) at 5 mg/mL and incubated at 37° C. on a rotating platform (140 RPM). At selected time points, supernatant was collected by centrifugation (8,000×g for 5 min) and particles were resuspended in fresh PBS. Drug content was measured by spectraphotometer.

duration of in vitro drug release [2] [days] | drug released during the first 6 days [2] [%] | release over the initial 24 hours [2] [%] | Structure (SMILES) | IOP reduction [1] [%]
 |  |  | CC(=O)Nc1nnc(S(N)(=O)=O)s1 [acetazolamide] | 30
12 | 80 | 12 | CCN[C@H]1CN(CCCOC)S(=O)(=O)c2sc(S(N)(=O)=O)cc21 [brinzolamide] | 
12 | 80 | 18 | CCN[C@H]1C[C@H](C)S(=O)(=O)c2sc(S(N)(=O)=O)cc21 [dorzolamide] | 
